Drawing on patent US12497408B2, “Tetracyclic compounds and methods for the treatment of Zika virus infection” (priority 2021, dated 2025), this text covers EC50 for eleven compounds.

The term pEC50 denotes −log10 of the EC50, conventionally taken in molar units.

The subject of the test is ZIKV. As to the kind of experiment: ZIKV reporter virus-based antiviral screening on Huh7 cells. It counts as cell-based, Zika virus. To be noted: Huh7 cells infected with recombinant luciferase reporter ZIKV (MOI about 0.1), luciferase signal. The method, boiled down: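 Huh7 cells in 2% FBS assay medium infected at MOI about 0.1 with Renilla or Nano luciferase ZIKV premixed with nine-point compound dilutions, 48 hrs at 37° C. Luciferase signal normalized to DMSO controls as 100%; viability optionally by CellTiter-Glo with Rlu virus.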
On the technique in general: Reporter assays use an easily measured gene product as a stand-in for the process of interest.

The structures appear in SMILES notation. pEC50: −log10 of the molar value. Read-outs that look alike come from different tables or passages of the source. Bounds are passed on as bounds.

Consider `COC(=O)N[C@@H](C(=O)N1CC2(CC2)C[C@H]1c1nc(Cl)c(-c2cc3c4c(c2)OCc2cc(-c5[nH]c([C@@H]6CC7(CC7)CN6C(=O)[C@H](NC(=O)OC)C(C)C)nc5C(C)C)cc(c2-4)OC3)[nH]1)C(C)C` [Compound 81, methyl ((R)-1-((S)-6-(5-(7-(4-chloro-2-((S)-5-((methoxycarbonyl)-D-valyl)-5-azaspiro[2.4]heptan-6-yl)-1H-imidazol-5-yl)-5,10-dihydrochromeno[5,4,3-cde]chromen-2-yl)-4-isopropyl-1H-imidazol-2-yl)-5-azaspiro[2.4]heptan-5-yl)-3-methyl-1-oxobutan-2-yl)carbamate], for which, where the note is “Zika virus, Huh-7, 48 h”, the pEC50 is less than 6.00.

Consider `COC(=O)N[C@H](C(=O)N1[C@@H](C)CC[C@H]1c1nc(Cl)c(-c2cc3c4c(c2)OCc2cc(-c5[nH]c([C@@H]6CC[C@H](C)N6C(=O)[C@@H](NC(=O)OC)C6C[C@@H](C)O[C@H](C)C6)nc5Cl)cc(c2-4)OC3)[nH]1)C1C[C@@H](C)O[C@H](C)C1` (stereo partly drawn) [Compound 21, dimethyl ((1S,1′S)-((2S,2′S,5S,5′S)-((5,10-dihydrochromeno[5,4,3-cde]chromene-2,7-diyl)bis(4-chloro-1H-imidazole-5,2-diyl))bis(2-methylpyrrolidine-5,1-diyl))bis(1-((2R,6R)-2,6-dimethyltetrahydro-2H-pyran-4-yl)-2-oxoethane-2,1-diyl))dicarbamate], for which, for the setting “Zika virus, Huh-7, 48 h”, the negative-log EC50 (pEC50) is 8.03.

`CC[C@H](C)[C@H](NC(=O)OC)C(=O)N1C[C@H](F)C[C@H]1c1nc(Cl)c(-c2cc3c4c(c2)OCc2cc(-c5[nH]c([C@@H]6C[C@@H](F)CN6C(=O)[C@@H](NC(=O)OC)[C@@H](C)CC)nc5Cl)cc(c2-4)OC3)[nH]1` [Compound 54, dimethyl ((2S,2′S,3S,3′S)-((3R,3′R,5S,5′S)-((5,10-dihydrochromeno[5,4,3-cde]chromene-2,7-diyl)bis(4-chloro-1H-imidazole-5,2-diyl))bis(3-fluoropyrrolidine-5,1-diyl))bis(3-methyl-1-oxopentane-1,2-diyl))dicarbamate]: under “Zika virus, Huh-7, 48 h”, the negative logarithm of the EC50 (pEC50) was 8.10.

Consider `COC(=O)N[C@H](C(=O)N1[C@@H]2C[C@@H]2C[C@H]1c1nc(Cl)c(-c2cc3c4c(c2)OCc2cc(-c5[nH]c([C@@H]6C[C@H]7C[C@H]7N6C(=O)[C@@H](NC(=O)OC)C(C)C)nc5Cl)cc(c2-4)OC3)[nH]1)C(C)C` [Compound 46, dimethyl ((2S,2′S)-((1R,1′R,3S,3′S,5R,5′R)-((5,10-dihydrochromeno[5,4,3-cde]chromene-2,7-diyl)bis(4-chloro-1H-imidazole-5,2-diyl))bis(2-azabicyclo[3.1.0]hexane-3,2-diyl))bis(3-methyl-1-oxobutane-1,2-diyl))dicarbamate], for which the pEC50 (Zika virus, Huh-7, 48 h) was 8.30.

Consider `CC[C@H](C)[C@H](NC(=O)OC)C(=O)N1[C@@H](C)CC[C@H]1c1nc(C(C)C)c(-c2cc3c4c(c2)OCc2cc(-c5[nH]c([C@@H]6CC[C@H](C)N6C(=O)[C@@H](NC(=O)OC)[C@@H](C)CC)nc5C(C)C)cc(c2-4)OC3)[nH]1` [Compound 41, dimethyl ((2S,2′S,3S,3′S)-((2S,2′S,5S,5′S)-((5,10-dihydrochromeno[5,4,3-cde]chromene-2,7-diyl)bis(4-isopropyl-1H-imidazole-5,2-diyl))bis(2-methylpyrrolidine-5,1-diyl))bis(3-methyl-1-oxopentane-1,2-diyl))dicarbamate], for which the negative-log EC50 (pEC50) (Zika virus, Huh-7, 48 h) was 8.55.

On to `COC(=O)N[C@H](C(=O)N1[C@@H](C)CC[C@H]1c1nc(Cl)c(-c2cc3c4c(c2)OCc2cc(-c5[nH]c([C@@H]6CC[C@H](C)N6C(=O)[C@@H](NC(=O)OC)C(C)(C)C(F)(F)F)nc5Cl)cc(c2-4)OC3)[nH]1)C(C)(C)C(F)(F)F` [Compound 34, dimethyl ((2S,2′S)-((2S,2′S,5S,5′S)-((5,10-dihydrochromeno[5,4,3-cde]chromene-2,7-diyl)bis(4-chloro-1H-imidazole-5,2-diyl))bis(2-methylpyrrolidine-5,1-diyl))bis(4,4,4-trifluoro-3,3-dimethyl-1-oxobutane-l,2-diyl))dicarbamate], for which the pEC50 (48 hrs, read-out: EC50) was 8.59.

Turning to `CC[C@H](C)[C@H](NC(=O)OC)C(=O)N1[C@H](C)CC[C@H]1c1nc(Cl)c(-c2cc3c4c(c2)OCc2cc(-c5[nH]c([C@@H]6CC[C@@H](C)N6C(=O)[C@@H](NC(=O)OC)[C@@H](C)CC)nc5Cl)cc(c2-4)OC3)[nH]1` [Compound 63, dimethyl ((2S,2′S,3S,3′S)-((2R,2′R,5S,5′S)-((5,10-dihydrochromeno[5,4,3-cde]chromene-2,7-diyl)bis(4-chloro-1H-imidazole-5,2-diyl))bis(2-methylpyrrolidine-5,1-diyl))bis(3-methyl-1-oxopentane-1,2-diyl))dicarbamate], where the note is “Zika virus, Huh-7, 48 h”, the negative logarithm of the EC50 (pEC50) is 7.79.

On to `COC(=O)N[C@H](C(=O)N1CCC[C@H]1c1nc(Cl)c(-c2cc3c4c(c2)OCc2cc(-c5[nH]c([C@@H]6CCCN6C(=O)[C@@H](NC(=O)OC)c6ccccc6)nc5Cl)cc(c2-4)OC3)[nH]1)c1ccccc1` [Compound 23, dimethyl ((1S,1′S)-((2S,2′S)-((5,10-dihydrochromeno[5,4,3-cde]chromene-2,7-diyl)bis(4-chloro-1H-imidazole-5,2-diyl))bis(pyrrolidine-2,1-diyl))bis(2-oxo-1-phenylethane-2,1-diyl))dicarbamate], for which, for the setting “Zika virus, Huh-7, 48 h”, the negative logarithm of the EC50 (pEC50) was 7.28.

For the compound `COC(=O)N[C@H](C(=O)N1CCC[C@H]1c1nc(Cl)c(-c2cc3c4c(c2)OCc2cc(-c5[nH]c([C@@H]6CCCN6C(=O)[C@@H](NC(=O)OC)C(C)(C)C)nc5Cl)cc(c2-4)OC3)[nH]1)C(C)(C)C` [Compound 26, dimethyl ((2S,2′S)-((2S,2′S)-((5,10-dihydrochromeno[5,4,3-cde]chromene-2,7-diyl)bis(4-chloro-1H-imidazole-5,2-diyl))bis(pyrrolidine-2,1-diyl))bis(3,3-dimethyl-1-oxobutane-1,2-diyl))dicarbamate], the pEC50 (Zika virus, Huh-7, 48 h) is 8.80.

Turning to `COC(=O)N[C@H](C(=O)N1[C@H](c2nc(Cl)c(-c3cc4c5c(c3)OCc3cc(-c6[nH]c([C@@H]7C[C@@H]8C[C@@H]8N7C(=O)[C@@H](NC(=O)OC)C(C)(C)C(F)(F)F)nc6Cl)cc(c3-5)OC4)[nH]2)C[C@@H]2C[C@@H]21)C(C)(C)C(F)(F)F` [Compound 12, dimethyl ((2S,2′S)-((1S,1′S,3S,3′S,5S,5′S)-((5,10-dihydrochromeno[5,4,3-cde]chromene-2,7-diyl)bis(4-chloro-1H-imidazole-5,2-diyl))bis(2-azabicyclo[3.1.0]hexane-3,2-diyl))bis(4,4,4-trifluoro-3,3-dimethyl-1-oxobutane-1,2-diyl))dicarbamate], the pEC50 (Zika virus, Huh-7, 48 h) is 7.92.

Turning to `COC(=O)N[C@H](C(=O)N1C[C@@H](C)C[C@H]1c1nc(C(C)C)c(-c2cc3c4c(c2)OCc2cc(-c5[nH]c([C@@H]6C[C@H](C)CN6C(=O)[C@@H](NC(=O)OC)C(C)C)nc5C(C)C)cc(c2-4)OC3)[nH]1)C(C)C` [Compound 72, dimethyl ((2S,2′S)-((3S,3′S,5S,5′S)-((5,10-dihydrochromeno[5,4,3-cde]chromene-2,7-diyl)bis(4-isopropyl-1H-imidazole-5,2-diyl))bis(3-methylpyrrolidine-5,1-diyl))bis(3-methyl-1-oxobutane-1,2-diyl))dicarbamate], for the setting “Zika virus, Huh-7, 48 h”, the negative logarithm of the EC50 (pEC50) was 7.93.
